# In PubChem BioAssay AID2060496 (Molecular Pharmacology Branch, DTP, NCI, 2025):
# System: 276233-004-R-J1-PDC complex spheroid viability
# Assay: Anticancer human tumor 276233-004-R-J1-PDC patient-derived colon adenocarcinoma cell line growth inhibition [GQUAD]
# Settings: for IC50: curve of first compound; for viability, T/C: stronger effect = lower value
# How it was run: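 Multi-cell-type spheroids of tumor cells with HUVEC and mesenchymal stem cells, treated with drug combinations. Concentrations descend in half-log steps from near clinical Cmax, or from 10 microM where Cmax is unknown; viability read-out.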
# [1] = second compound 0.0316 µM, first compound 0.0316 µM
# [2] = second compound 0.0316 µM, first compound 0.1 µM
# [3] = second compound 0.0316 µM, first compound 0.316 µM
# [4] = second compound 0.0316 µM, first compound 1 µM
# [5] = second compound 0.0316 µM, first compound 3.16 µM
# [6] = second compound 0.0316 µM, first compound 10 µM
# [7] = second compound 0.1 µM, first compound 0.0316 µM
# [8] = second compound 0.1 µM, first compound 0.1 µM
# [9] = second compound 0.1 µM, first compound 0.316 µM
# [10] = second compound 0.1 µM, first compound 1 µM
# [11] = second compound 0.1 µM, first compound 3.16 µM
# [12] = second compound 0.1 µM, first compound 10 µM
# [13] = second compound 0.316 µM, first compound 0.0316 µM
# [14] = second compound 0.316 µM, first compound 0.1 µM
# [15] = second compound 0.316 µM, first compound 0.316 µM
# [16] = second compound 0.316 µM, first compound 1 µM
# [17] = second compound 0.316 µM, first compound 3.16 µM
# [18] = second compound 0.316 µM, first compound 10 µM
# [19] = second compound 1 µM, first compound 0.0316 µM
# [20] = second compound 1 µM, first compound 0.1 µM
# [21] = second compound 1 µM, first compound 0.316 µM
# [22] = second compound 1 µM, first compound 1 µM
# [23] = second compound 1 µM, first compound 3.16 µM
# [24] = second compound 1 µM, first compound 10 µM
# [25] = second compound 3.16 µM, first compound 0.0316 µM
# [26] = second compound 3.16 µM, first compound 0.1 µM
# [27] = second compound 3.16 µM, first compound 0.316 µM
# [28] = second compound 3.16 µM, first compound 1 µM
# [29] = second compound 3.16 µM, first compound 3.16 µM
# [30] = second compound 3.16 µM, first compound 10 µM
# [31] = second compound 10 µM, first compound 0.0316 µM
# [32] = second compound 10 µM, first compound 0.1 µM
# [33] = second compound 10 µM, first compound 0.316 µM
# [34] = second compound 10 µM, first compound 1 µM
# [35] = second compound 10 µM, first compound 3.16 µM
# [36] = second compound 10 µM, first compound 10 µM
# 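Further: spheroids exposed to drugs for seven days.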
# 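Wherever viability, T/C is given: 100% = DMSO vehicle control viability.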
structure (smiles),measurement,setting,value
C#Cc1c(F)ccc2cc(O)cc(-c3ncc4c(N5CC6CCC(C5)N6)nc(OCC56CCCN5CC(F)C6)nc4c3F)c12 (stereo unspecified) + Cc1[nH]c2ccc(F)cc2c1-c1nc2c3cccnc3c3ncccc3c2[nH]1,IC50,second compound 0.0316 µM,> 10 µM
same,IC50,second compound 0.1 µM,2.5 µM
same,IC50,second compound 0.316 µM,1.13 µM
same,IC50,second compound 1 µM,0.208 µM
same,IC50,second compound 3.16 µM,< 0.0316 µM
same,IC50,second compound 10 µM,< 0.0316 µM
same,"viability, T/C",[1],89%
same,"viability, T/C",[2],85.2%
same,"viability, T/C",[3],89.2%
same,"viability, T/C",[4],71.7%
same,"viability, T/C",[5],57.2%
same,"viability, T/C",[6],51.2%
same,"viability, T/C",[7],80.2%
same,"viability, T/C",[8],80.3%
same,"viability, T/C",[9],82.5%
same,"viability, T/C",[10],73.8%
same,"viability, T/C",[11],44%
same,"viability, T/C",[12],34.1%
same,"viability, T/C",[13],68.4%
same,"viability, T/C",[14],67.4%
same,"viability, T/C",[15],57%
same,"viability, T/C",[16],56%
same,"viability, T/C",[17],33.8%
same,"viability, T/C",[18],27.4%
same,"viability, T/C",[19],70.3%
same,"viability, T/C",[20],48.7%
same,"viability, T/C",[21],48.7%
same,"viability, T/C",[22],39.7%
same,"viability, T/C",[23],40%
same,"viability, T/C",[24],26.2%
same,"viability, T/C",[25],19.1%
same,"viability, T/C",[26],14.9%
same,"viability, T/C",[27],12.7%
same,"viability, T/C",[28],13.6%
same,"viability, T/C",[29],9.51%
same,"viability, T/C",[30],17.4%
same,"viability, T/C",[31],35.7%
same,"viability, T/C",[32],41.8%
same,"viability, T/C",[33],35.7%
same,"viability, T/C",[34],34.2%
same,"viability, T/C",[35],28.1%
same,"viability, T/C",[36],15.6%
CC(=O)O[C@H]1C(=O)[C@@]2(C)[C@H]([C@H](OC(=O)c3ccccc3)[C@]3(O)C[C@H](OC(=O)[C@H](O)[C@@H](NC(=O)c4ccccc4)c4ccccc4)C(C)=C1C3(C)C)[C@]1(OC(C)=O)CO[C@@H]1C[C@@H]2O + Cc1[nH]c2ccc(F)cc2c1-c1nc2c3cccnc3c3ncccc3c2[nH]1,IC50,second compound 0.0316 µM,> 10 µM
same,IC50,second compound 0.1 µM,> 10 µM
same,IC50,second compound 0.316 µM,> 10 µM
same,IC50,second compound 1 µM,0.341 µM
same,IC50,second compound 3.16 µM,< 0.0316 µM
same,IC50,second compound 10 µM,< 0.0316 µM
same,"viability, T/C",[1],82.4%
same,"viability, T/C",[2],72%
same,"viability, T/C",[3],68.8%
same,"viability, T/C",[4],81.9%
same,"viability, T/C",[5],100%
same,"viability, T/C",[6],70.9%
same,"viability, T/C",[7],66.3%
same,"viability, T/C",[8],77.2%
same,"viability, T/C",[9],68.7%
same,"viability, T/C",[10],77.3%
same,"viability, T/C",[11],64.2%
same,"viability, T/C",[12],64.9%
same,"viability, T/C",[13],72.6%
same,"viability, T/C",[14],65.4%
same,"viability, T/C",[15],57.1%
same,"viability, T/C",[16],53.5%
same,"viability, T/C",[17],62.4%
same,"viability, T/C",[18],47.8%
same,"viability, T/C",[19],49.7%
same,"viability, T/C",[20],57%
same,"viability, T/C",[21],55.4%
same,"viability, T/C",[22],39.2%
same,"viability, T/C",[23],45.8%
same,"viability, T/C",[24],51.8%
same,"viability, T/C",[25],20.4%
same,"viability, T/C",[26],14.5%
same,"viability, T/C",[27],15.4%
same,"viability, T/C",[28],12.3%
same,"viability, T/C",[29],13.6%
same,"viability, T/C",[30],12.1%
same,"viability, T/C",[31],42.2%
same,"viability, T/C",[32],40.1%
same,"viability, T/C",[33],38.5%
same,"viability, T/C",[34],28.1%
same,"viability, T/C",[35],30.4%
same,"viability, T/C",[36],33.5%
CC[C@@]1(O)C(=O)OCc2c1cc1n(c2=O)Cc2cc3c(CN(C)C)c(O)ccc3nc2-1 + Cc1[nH]c2ccc(F)cc2c1-c1nc2c3cccnc3c3ncccc3c2[nH]1,IC50,second compound 0.0316 µM,> 0.316 µM
same,IC50,second compound 0.1 µM,> 0.316 µM
same,IC50,second compound 0.316 µM,> 0.316 µM
same,IC50,second compound 1 µM,> 0.316 µM
same,IC50,second compound 3.16 µM,< 0.000999 µM
same,IC50,second compound 10 µM,< 0.000999 µM
same,"viability, T/C","second compound 0.0316 µM, first compound 0.000999 µM",83.1%
same,"viability, T/C","second compound 0.0316 µM, first compound 0.00316 µM",76.6%
same,"viability, T/C","second compound 0.0316 µM, first compound 0.00999 µM",80.8%
same,"viability, T/C",[1],89.2%
same,"viability, T/C","second compound 0.0316 µM, first compound 0.0999 µM",92%
same,"viability, T/C",[3],91.5%
same,"viability, T/C","second compound 0.1 µM, first compound 0.000999 µM",93.4%
same,"viability, T/C","second compound 0.1 µM, first compound 0.00316 µM",102%
same,"viability, T/C","second compound 0.1 µM, first compound 0.00999 µM",102%
same,"viability, T/C",[7],87%
same,"viability, T/C","second compound 0.1 µM, first compound 0.0999 µM",88.2%
same,"viability, T/C",[9],96.9%
same,"viability, T/C","second compound 0.316 µM, first compound 0.000999 µM",78.7%
same,"viability, T/C","second compound 0.316 µM, first compound 0.00316 µM",88.4%
same,"viability, T/C","second compound 0.316 µM, first compound 0.00999 µM",82.7%
same,"viability, T/C",[13],89.6%
same,"viability, T/C","second compound 0.316 µM, first compound 0.0999 µM",99.6%
same,"viability, T/C",[15],82.8%
same,"viability, T/C","second compound 1 µM, first compound 0.000999 µM",71.2%
same,"viability, T/C","second compound 1 µM, first compound 0.00316 µM",78.4%
same,"viability, T/C","second compound 1 µM, first compound 0.00999 µM",76.2%
same,"viability, T/C",[19],67.9%
same,"viability, T/C","second compound 1 µM, first compound 0.0999 µM",58.2%
same,"viability, T/C",[21],77.7%
same,"viability, T/C","second compound 3.16 µM, first compound 0.000999 µM",48.4%
same,"viability, T/C","second compound 3.16 µM, first compound 0.00316 µM",54.4%
same,"viability, T/C","second compound 3.16 µM, first compound 0.00999 µM",48.5%
same,"viability, T/C",[25],51.6%
same,"viability, T/C","second compound 3.16 µM, first compound 0.0999 µM",61.9%
same,"viability, T/C",[27],58.3%
same,"viability, T/C","second compound 10 µM, first compound 0.000999 µM",46%
same,"viability, T/C","second compound 10 µM, first compound 0.00316 µM",40.5%
same,"viability, T/C","second compound 10 µM, first compound 0.00999 µM",53.9%
same,"viability, T/C",[31],58%
same,"viability, T/C","second compound 10 µM, first compound 0.0999 µM",50.7%
same,"viability, T/C",[33],46.7%
